According to ChEMBL document CHEMBL1201862, “PubChem BioAssay data set” (2004):
Activity calls are given as the source filed them.

Columns and labels:
[1] = biological target: T1, Replicative DNA helicase DnaB (Mycobacterium tuberculosis, UniProt P9WMR3); assay: DnaB intein splicing inhibitors, dose response, biochemical, cell-free fluorescence (AID 449749); format: functional
T1 sequence (P9WMR3 whole entry): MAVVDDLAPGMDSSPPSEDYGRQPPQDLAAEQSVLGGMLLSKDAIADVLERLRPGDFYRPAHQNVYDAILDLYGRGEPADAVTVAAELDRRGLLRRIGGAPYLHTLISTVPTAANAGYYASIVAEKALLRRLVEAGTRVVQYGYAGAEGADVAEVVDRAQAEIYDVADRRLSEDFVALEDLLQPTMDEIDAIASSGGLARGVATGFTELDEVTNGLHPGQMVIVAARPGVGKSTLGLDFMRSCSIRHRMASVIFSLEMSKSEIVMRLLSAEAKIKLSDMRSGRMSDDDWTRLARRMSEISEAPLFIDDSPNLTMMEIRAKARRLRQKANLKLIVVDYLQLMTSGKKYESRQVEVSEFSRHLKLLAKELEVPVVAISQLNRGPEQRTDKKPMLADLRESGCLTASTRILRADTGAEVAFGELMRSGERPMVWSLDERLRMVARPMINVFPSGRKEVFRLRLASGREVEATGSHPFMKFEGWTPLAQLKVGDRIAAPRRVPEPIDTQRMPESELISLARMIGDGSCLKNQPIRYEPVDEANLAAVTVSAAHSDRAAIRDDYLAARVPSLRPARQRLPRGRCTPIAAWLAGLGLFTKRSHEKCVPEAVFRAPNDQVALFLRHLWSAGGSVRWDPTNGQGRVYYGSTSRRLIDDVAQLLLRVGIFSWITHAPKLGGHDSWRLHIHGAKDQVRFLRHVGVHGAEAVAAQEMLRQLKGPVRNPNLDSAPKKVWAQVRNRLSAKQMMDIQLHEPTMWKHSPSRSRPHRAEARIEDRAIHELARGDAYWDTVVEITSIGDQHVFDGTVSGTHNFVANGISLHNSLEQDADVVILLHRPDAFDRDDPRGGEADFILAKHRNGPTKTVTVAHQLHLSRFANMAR

Protein RecA = biological target: T2, Protein RecA (Mycobacterium tuberculosis, UniProt P9WHJ3); assay: Fluorescence Cell-Free Homogeneous Dose Retest to Identify Inhibitors of RecA-Intein Splicing Activity. [Related pubchem assays (depositor defined):AID2097, AID2223, AID489010, AID492950]; format: functional
T2 sequence (P9WHJ3 whole entry): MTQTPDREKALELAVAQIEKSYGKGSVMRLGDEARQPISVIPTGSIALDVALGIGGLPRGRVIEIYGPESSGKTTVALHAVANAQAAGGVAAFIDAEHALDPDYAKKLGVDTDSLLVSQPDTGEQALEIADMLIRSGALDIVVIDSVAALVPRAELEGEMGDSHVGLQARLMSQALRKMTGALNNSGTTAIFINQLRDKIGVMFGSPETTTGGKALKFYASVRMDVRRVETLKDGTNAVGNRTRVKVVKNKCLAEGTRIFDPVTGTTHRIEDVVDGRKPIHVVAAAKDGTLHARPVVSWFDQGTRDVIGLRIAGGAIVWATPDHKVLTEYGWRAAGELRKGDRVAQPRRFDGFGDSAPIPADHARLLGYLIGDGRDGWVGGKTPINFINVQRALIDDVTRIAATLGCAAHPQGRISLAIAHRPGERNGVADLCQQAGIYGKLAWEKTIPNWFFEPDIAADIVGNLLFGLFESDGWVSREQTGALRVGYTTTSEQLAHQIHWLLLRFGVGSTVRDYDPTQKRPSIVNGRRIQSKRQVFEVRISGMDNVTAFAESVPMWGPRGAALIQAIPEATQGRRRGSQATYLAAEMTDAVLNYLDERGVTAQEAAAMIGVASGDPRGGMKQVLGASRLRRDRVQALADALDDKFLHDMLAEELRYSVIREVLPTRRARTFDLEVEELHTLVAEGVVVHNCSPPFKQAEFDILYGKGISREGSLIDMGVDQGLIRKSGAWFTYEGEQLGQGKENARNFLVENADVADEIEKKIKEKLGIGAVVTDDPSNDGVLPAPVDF

[2] = biological target: Eukaryotic translation initiation factor 4E (Mus musculus, UniProt P63073); assay: eIF4E–eIF4G protein interaction inhibitors, dose response, biochemical, TR-FRET (AID 855); format: functional;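 note: potency for disrupting eIF4E binding to eIF4GI seen as loss of FRET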
[3] = CAL PDZ domain peptide-binding inhibitors, dose response, biochemical, fluorescence polarization, untagged CAL PDZ, cherry-pick (AID 602267); format: functional
Hexokinase HKDC1 = biological target: T3, Hexokinase HKDC1 (Homo sapiens, UniProt Q2TB90); assay: HKDC1 hexokinase inhibitors, dose response, biochemical, W721R variant (AID 504729); format: functional
T3 sequence (Q2TB90 whole entry): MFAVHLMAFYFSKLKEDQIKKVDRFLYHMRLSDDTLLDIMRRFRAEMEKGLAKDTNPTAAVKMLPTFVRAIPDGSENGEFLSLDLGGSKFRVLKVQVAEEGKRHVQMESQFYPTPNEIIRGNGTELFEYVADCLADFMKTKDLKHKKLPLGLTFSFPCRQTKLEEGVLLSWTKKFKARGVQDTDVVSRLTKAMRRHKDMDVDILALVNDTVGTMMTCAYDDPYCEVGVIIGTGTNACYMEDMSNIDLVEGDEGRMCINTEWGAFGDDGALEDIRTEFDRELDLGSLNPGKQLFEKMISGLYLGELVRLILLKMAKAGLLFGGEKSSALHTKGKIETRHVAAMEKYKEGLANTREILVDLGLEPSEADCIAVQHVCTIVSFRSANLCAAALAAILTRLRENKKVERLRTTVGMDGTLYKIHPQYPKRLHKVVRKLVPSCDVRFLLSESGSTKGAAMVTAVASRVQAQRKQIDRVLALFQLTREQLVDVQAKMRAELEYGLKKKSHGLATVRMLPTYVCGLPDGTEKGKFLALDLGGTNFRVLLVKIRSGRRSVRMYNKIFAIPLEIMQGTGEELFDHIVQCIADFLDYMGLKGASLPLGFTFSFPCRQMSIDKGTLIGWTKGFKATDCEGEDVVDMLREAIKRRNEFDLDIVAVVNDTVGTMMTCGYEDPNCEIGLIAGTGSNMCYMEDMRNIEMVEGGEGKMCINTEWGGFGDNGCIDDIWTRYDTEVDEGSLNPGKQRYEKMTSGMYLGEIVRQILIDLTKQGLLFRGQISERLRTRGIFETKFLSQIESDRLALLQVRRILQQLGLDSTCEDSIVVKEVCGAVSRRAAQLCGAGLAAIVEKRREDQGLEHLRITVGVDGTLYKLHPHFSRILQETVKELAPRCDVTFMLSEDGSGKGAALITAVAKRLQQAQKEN

[4] = biological target: Cystic fibrosis transmembrane conductance regulator/Golgi-associated PDZ and coiled-coil motif-containing protein (Homo sapiens, UniProt P13569+Q9HD26); assay: CAL PDZ peptide-binding inhibitors, dose response, biochemical, fluorescence polarization, Cerulean-tagged CAL PDZ, cherry-picks (AID 504773)
Cystic fibrosis transmembrane conductance regulator/Golgi-associated PDZ and coiled-coil motif-containing protein, sequence (P13569 whole entry, other chains not shown): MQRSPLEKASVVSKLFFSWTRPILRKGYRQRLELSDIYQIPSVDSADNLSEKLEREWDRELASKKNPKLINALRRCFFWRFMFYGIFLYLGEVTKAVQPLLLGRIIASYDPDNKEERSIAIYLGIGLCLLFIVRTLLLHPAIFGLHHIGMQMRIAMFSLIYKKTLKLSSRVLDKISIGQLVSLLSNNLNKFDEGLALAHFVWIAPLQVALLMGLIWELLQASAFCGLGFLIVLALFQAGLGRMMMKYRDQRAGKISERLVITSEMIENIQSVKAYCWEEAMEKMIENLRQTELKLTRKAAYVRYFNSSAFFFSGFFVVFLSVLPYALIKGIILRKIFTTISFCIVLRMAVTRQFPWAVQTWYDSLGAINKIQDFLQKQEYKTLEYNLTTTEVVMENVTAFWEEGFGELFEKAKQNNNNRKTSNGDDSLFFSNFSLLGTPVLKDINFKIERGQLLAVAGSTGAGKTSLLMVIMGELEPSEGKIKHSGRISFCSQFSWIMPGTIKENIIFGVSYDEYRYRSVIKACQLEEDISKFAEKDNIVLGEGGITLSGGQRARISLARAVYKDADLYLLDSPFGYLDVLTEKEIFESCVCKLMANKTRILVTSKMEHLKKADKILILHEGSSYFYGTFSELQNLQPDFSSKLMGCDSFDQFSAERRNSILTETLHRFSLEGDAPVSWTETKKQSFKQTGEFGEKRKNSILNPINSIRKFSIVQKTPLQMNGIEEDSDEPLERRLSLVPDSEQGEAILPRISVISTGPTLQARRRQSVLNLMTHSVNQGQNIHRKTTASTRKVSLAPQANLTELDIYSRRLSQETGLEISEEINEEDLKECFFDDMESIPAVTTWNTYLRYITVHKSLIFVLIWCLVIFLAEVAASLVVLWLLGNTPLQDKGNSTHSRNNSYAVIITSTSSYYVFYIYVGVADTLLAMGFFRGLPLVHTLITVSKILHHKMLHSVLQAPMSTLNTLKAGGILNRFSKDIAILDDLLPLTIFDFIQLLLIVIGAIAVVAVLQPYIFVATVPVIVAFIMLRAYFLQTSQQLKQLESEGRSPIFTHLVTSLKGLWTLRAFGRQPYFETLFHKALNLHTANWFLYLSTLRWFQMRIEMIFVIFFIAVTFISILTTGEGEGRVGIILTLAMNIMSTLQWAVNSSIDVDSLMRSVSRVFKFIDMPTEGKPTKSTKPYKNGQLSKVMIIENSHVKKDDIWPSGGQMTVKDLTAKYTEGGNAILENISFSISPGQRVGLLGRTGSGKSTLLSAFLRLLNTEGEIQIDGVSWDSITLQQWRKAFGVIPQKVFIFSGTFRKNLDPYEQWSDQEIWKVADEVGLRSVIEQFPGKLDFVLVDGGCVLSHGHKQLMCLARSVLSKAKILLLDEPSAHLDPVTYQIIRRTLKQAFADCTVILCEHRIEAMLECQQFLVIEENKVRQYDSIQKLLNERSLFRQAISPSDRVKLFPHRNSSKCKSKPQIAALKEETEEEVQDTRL

Eukaryotic translation initiation factor 4E, sequence (P63073 whole entry, the tested form may be a part): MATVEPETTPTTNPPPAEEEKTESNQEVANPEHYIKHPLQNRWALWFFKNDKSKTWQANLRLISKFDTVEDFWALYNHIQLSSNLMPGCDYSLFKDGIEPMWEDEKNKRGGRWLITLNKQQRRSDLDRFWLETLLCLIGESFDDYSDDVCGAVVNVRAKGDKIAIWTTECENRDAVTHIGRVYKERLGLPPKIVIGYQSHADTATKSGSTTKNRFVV

O=c1c2ccccc2nc2n1CCC2 [DEOXYVASICINONE]
active: AC50 [1] 13.3 µM | EC50 (Protein RecA) 11.6 µM | IC50 [2] 6.2 µM | AC50 [3] 60.4 µM | IC50 (Hexokinase HKDC1) 4.32 µM | AC50 [4] 21.3 µM
